Data: patent US4269940A, “Microbiological alkane oxidation process” (priority 1979, dated 1981)

Columns and labels:
[1] = tested on: purified secondary alcohol dehydrogenase; assay: Substrate and electron acceptor specificity of purified yeast secondary alcohol dehydrogenase; type: biochemical, Pichia sp. NRRL Y-11,328; conditions: purified enzyme
Procedure: (§1) Large scale cultures of Pichia sp. NRRL Y-11,328 were grown with aeration at 30° C. in a 14-liter New Brunswick f fermentor in a mineral salt medium containing methanol (0.4%, v/v) as the sole carbon source. The cells (200 g., wet weight) were suspended in 50 mm sodium phosphate buffer, pH 7.0, containing 1 mM dithiothreitol (buffer A), and crude extracts were prepared as described previously. To the crude extracts, 18 ml. of protamine sulfate solution [2% solution in 0.1 M tris (hydroxymethyl) aminomethane (tris) base] was added dropwise with continuous stirring. After standing for 30 min., the extracts were centrifuged at 20,000 x g. for 60 min. The supernatant solution was fractioned with solid ammonium sulfate. Extracts were brought to 50% of saturation with respect to ammonium sulfate by addition of 313 g. of the salt per liter of extract. Precipitated proteins was removed by centrifugation, and 137 g. of ammonium sulfate was added per liter of the supernatant liquid to bring it to 70% of saturation. Material precipitating between 50 and 70% of saturation was collected by centrifugation and dissolved in buffer A. This preparation was dialyzed overnight against buffer A, and the dialyzed material was applied to a DEAE-cellulose column (5×40 cm) that had been equilibrated with buffer A. The sample was washed with 200 ml. of buffer A and eluted with 2 liters of buffer A that contained NaCl in a linear gradient running from a concentration of 0 to 0.5 M. Fractions of 15 ml. were collected. Fractions containing secondary alcohol dehydrogenase activity were pooled and were termed DEAE-cellulose eluate. The DEAE-cellulose eluate was concentrated by ammonium sulfate fractionation.
(§2) Secondary alcohol dehydrogenase activity was measured spectrophotometrically at 340 nm with a NAD^+ as an electron acceptor. The reaction mixture, in a total 3.0 ml., contained 50 mM phosphate buffer, pH 8.0, 5μmoles NAD^+, crude extracts, and substrate. The reactions were started by addition of 100 μof 0.1 M substrate and the rate of NAD^+ reduction was measured. Protein concentration was determined by the method of Lowry et al.
The substrate specificity of the purified secondary alcohol dehydrogenase was examined spectrophotometrically.

[2] = tested on: cell-free soluble extracts (SADH system); assay: Cofactor requirement of cell-free SADH system (2-butanol to 2-butanone); type: biochemical
Procedure: The clear supernatant contained the SADH activity. […] The reaction was started by the addition of substrate.
Catalytic activity was also assayed by fluorescence spectrophotometry.

[3] = tested on: P(40) particulate fraction of Methylosinus sp. (CRL-15, NRRL B-11,202); assay: Oxidation of n-alkenes and n-alkanes by P(40) particulate fraction (Table X); type: biochemical; conditions: P(40) fraction, 30° C.
[4] = tested on: purified secondary alcohol dehydrogenase; assay: Inhibition of purified yeast secondary alcohol dehydrogenase; type: biochemical, Pichia sp. NRRL Y-11,328; conditions: purified yeast enzyme
Procedure: as §1, §2
Various primary alcohols not oxidized by secondary alcohol dehydrogenase were tested as potential inhibitors of enzyme activity.

Inhibition of secondary alcohol dehydrogenase activity (in words) [4]	Compound	Function as electron acceptor/carrier for the purified yeast enzyme [1]	Effectiveness as cofactor of the cell-free SADH system [2]	Rate of product formation (substrate to epoxide or alcohol) [3]
–	Cc1cc2nc3c(=O)[nH]c(=O)nc-3n(C[C@H](O)[C@H](O)[C@H](O)COP(=O)(O)OP(=O)(O)OC[C@H]3O[C@@H](n4cnc5c(N)ncnc54)[C@H](O)[C@@H]3O)c2cc1C [FAD, flavin adenine dinucleotide, reference compound]	could not act as electron carrier	not effective	–
–	C=CC=C [Butadiene]	–	–	0.63 μ moles/hr/mg of protein
–	NC(=O)c1ccc[n+]([C@@H]2O[C@H](COP(=O)([O-])OP(=O)(O)OC[C@H]3O[C@@H](n4cnc5c(N)ncnc54)[C@H](O)[C@@H]3O)[C@@H](O)[C@H]2O)c1 [NAD, Nicotinamide adenine dinucleotide, reference compound]	required	required	–
–	C=CCC [1-Butene]	–	–	2.18 μ moles/hr/mg of protein
–	C=CCCC [1-Pentene]	–	–	0 μ moles/hr/mg of protein
strongly inhibited	N[C@@H](CCC(=O)N[C@@H](CS)C(=O)NCC(=O)O)C(=O)O [glutathione]	–	not effective	–
–	C[n+]1c2ccccc2nc2ccccc21 [phenazine methosulfate, reference compound]	could not act as electron carrier	not effective	–
–	CC [Ethane]	–	–	3.2 μ moles/hr/mg of protein
–	C=C [Ethylene]	–	–	1.27 μ moles/hr/mg of protein
–	NC(=O)C1=CN([C@@H]2O[C@H](COP(=O)(O)OP(=O)(O)OC[C@H]3O[C@@H](n4cnc5c(N)ncnc54)[C@H](OP(=O)(O)O)[C@@H]3O)[C@@H](O)[C@H]2O)C=CC1 [NAD(P)H]	–	not effective	–
–	O=C1C(Cl)=CC(=Nc2ccc(O)cc2)C=C1Cl [dichlorophenol indophenol, reference compound]	could not act as electron carrier	not effective	–
–	NC(=O)c1ccc[n+]([C@@H]2O[C@H](COP(=O)([O-])OP(=O)(O)OC[C@H]3O[C@@H](n4cnc5c(N)ncnc54)[C@H](OP(=O)(O)O)[C@@H]3O)[C@@H](O)[C@H]2O)c1 [NADP, reference compound]	could not act as electron carrier	not effective	–
